Results reported in PubChem BioAssay (NCI).
Values joined by “and” are separate entries in the source; they are usually repeats but may differ in a detail not shown here. Equal values may be shown once.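 Assay format: 96-well plates, 48-hour exposure. GI50 = concentration required for 50% inhibition of growth. The concentration for full growth arrest is given as TGI.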

Key:
Experiment in all cases: NCI-60 cell line screen, 48 h
[1] = system: EKVX NSCLC
[2] = system: NCI-H460 lung
[3] = system: UO-31 renal
[4] = system: KM12 colon
[5] = system: SK-OV-3 ovarian
[6] = system: A498 renal
[7] = system: MALME-3M melanoma
[8] = system: IGROV1 ovarian
[9] = system: SW-620 colon
[10] = system: UACC-62 melanoma

SMILES	TGI [1] [µM]	TGI [2] [µM]	TGI [3]	TGI [4] [µM]	TGI [5]	TGI [6]	TGI [7]	TGI [8] [µM]	TGI [9] [µM]	TGI [10] [µM]	GI50 [1] [µM]	GI50 [2] [nM]	GI50 [3] [nM]	GI50 [4] [µM]	GI50 [5] [µM]	GI50 [6] [µM]	GI50 [7] [nM]	GI50 [8] [µM]	GI50 [9] [µM]	GI50 [10] [µM]
CCCCCCCCCCCCCCCCCC(=O)OCC(C[As](=O)(O)O)OC(=O)CCCCCCCCCCCCCCCCC (stereo not given)	> 100	> 100	> 100 µM	> 100	50 µM	> 100 µM	> 100 µM	> 100	33.8	> 100										
NC(=O)Nc1c([N+](=O)[O-])cc(C(F)(F)F)cc1[N+](=O)[O-]	> 100	> 100	> 100 µM	> 100		> 100 µM		> 100	> 100	> 100										
COc1cc(C2CC(c3ccccc3)=NN2C(C)=O)cc(OC)c1OC (stereo not given)	> 100	> 51	> 100 µM	> 100	> 100 µM	> 100 µM	> 100 µM	> 100	> 100	> 100	6.41	3550	7090	1.42	3.91	4.79	13000	4.66	3.04	4.2
O=C1CCC(N2Cc3c(C#CCCCNC(=O)c4cc5c(o4)C(=O)c4ccccc4C5=O)cccc3C2=O)C(=O)N1 (stereo not given)	31.1	4.09	36.1 µM	28.6	30.4 µM	27.5 µM	2.19 µM	17.2	11.4	3.65	15	1990	14000	4.52	15.9	14.2	988	4.03	3.05	1.87
Cc1cc2cc3cc(C)c(N)cc3[n+](C)c2cc1N	14.1	3.26	11.6 µM	4.29	11 µM	8.76 µM	6.86 µM	15.3		3.2	1.36	1010	2160	1.1	2.09	2.54	2380	2.66		1.41
CC1=NC(C(C)C)C(=O)O1 (stereo not given)	> 100	> 100	> 100 µM	> 100	> 100 µM	> 100 µM	> 100 µM	> 100	25.8	> 100										
CN(C)C1=NC2=S(SC(Nc3ccccc3)=N2)S1 (stereo not given)	38.5	> 100	61.1 µM	> 100	90.4 µM	46.1 µM	46.5 µM	> 100	> 100	> 100										
O=C(NCCNc1nccc(-c2c(-c3ccc(F)cc3)nc3sccn23)n1)c1ccccc1	56.1	22.3	18.5 µM	22.4	53.8 µM	> 100 µM		24.1	85.6	19.9	7.51	3280	1750	7.6	12.5	15.1		3.48	7.44	4.87
N=c1n(Cc2ccccc2)c(N)cc(=O)n1Cc1ccccc1	5.42	2.75	5.37 µM	29.3	8.44 µM	47.5 µM	6.87 µM	> 59.8	11.1	12	2.12	1080	2350	4.75	2.99	5.04	2940	4.04	3.05	3.55
Cc1c(-c2nnc(-c3ccc(F)cc3)o2)nnn1-c1ccnc2c(C(F)(F)F)cccc12	> 100	> 100	> 100 µM	> 100	> 100 µM		> 100 µM	> 100	> 100	> 100	31.8	30400	60300	89.5	30		41700	23.4	31.9	> 100
CCCCCCCCCCCCCCCCCC(=O)OCC(COC1OC(CS(=O)(=O)O)C(O)C(O)C1O)OC(=O)CCCCCCCCCCCCCCCCC (stereo not given)	> 100	> 100		> 100	> 100 µM	> 100 µM	> 100 µM	> 100	> 100	> 100										
CCCCCNC(=O)c1c(O)[nH]c(=S)[nH]c1=O		> 100		> 100	> 100 µM	> 100 µM	> 100 µM	> 100	> 100	> 100										
O=C1OC(c2ccccc2)=N/C1=C\c1cc(Cl)ccc1Cl	> 100	> 100	> 100 µM	> 100		> 100 µM	> 100 µM	> 100	> 100	> 100										
COc1cccc(Cn2c(-c3nonc3NC(C)=O)nc3ccccc32)c1		> 100	> 100 µM	> 100	> 100 µM	6.53 µM	43.8 µM	> 100	> 100	> 100		2450	3720	4	3.07	0.426	3310	7.98	3.08	3.37
NC(=O)CCC(NC(=O)Cc1ccccc1)C(=O)O (stereo not given) (tested in a mixture with another compound)	> 8130		2100 µM and > 8130 µM	> 8130	> 8130 µM	> 8130 µM	> 8130 µM	> 8130	> 8130	> 8130										
N#C/C(=C1C=C/C(=N\O)C(Cl)=C\1)c1ccccc1		11.9	17.1 µM	10.4	14.4 µM	64.7 µM	29.9 µM	23.7	12.9	18.1		2820	1740	0.772	3.77	3.34	7350	4.26	1.42	2.8
COC1OC(COS(=O)(=O)c2ccc(C)cc2)C(O)C(OS(=O)(=O)c2ccc(C)cc2)C1OS(=O)(=O)c1ccc(C)cc1 (stereo not given)	> 100	> 100	> 100 µM	> 100	> 100 µM		> 100 µM	> 100	> 100											

SMILES	TGI [1] [µM]	TGI [2] [µM]	TGI [3]	TGI [4] [µM]	TGI [5]	TGI [6]	TGI [7]	TGI [8] [µM]	TGI [9] [µM]	TGI [10] [µM]	GI50 [1] [µM]	GI50 [2] [nM]	GI50 [3] [nM]	GI50 [4] [µM]	GI50 [5] [µM]	GI50 [6] [µM]	GI50 [7] [nM]	GI50 [8] [µM]	GI50 [9] [µM]	GI50 [10] [µM]
CC1=CC(=O)c2c(C=O)c(O)c(O)c(C(C)C)c2C1=O		> 74.1	> 56.8 µM		> 100 µM	78 µM	68.2 µM	63.9		56.4										
Cc1cc(=O)oc2c(OS(C)(=O)=O)c(OS(C)(=O)=O)ccc12	> 100	> 100	> 100 µM	> 100		> 100 µM	> 100 µM	> 100	> 100	> 100										
Nc1ccc(-c2nc3ccccc3o2)cc1S	55.3	29.6	50.6 µM	35.2	65.1 µM	70.6 µM		> 100	44.5	26	11.6	13200	19500	8.1	23.2	28.3		19.7	20.7	13.2
COC1=CC(c2ccc[nH]2)=N/C1=C\c1[nH]c(C)c(C(C)=O)c1C	> 100	> 22.8	0.641 µM	> 100	> 100 µM	57 µM		> 100			2.25	451	226	0.262	> 25.9	18.1		0.696	0.0605	
Cc1ccc(NC2=C(Cl)C(=O)N(Cc3ccccc3)C2=O)cc1Cl	28.9	23.6	15.9 µM	26.6	> 100 µM		9.14 µM		16.9	16.8	14.1	6780	3330	13.7	19.4		598		5.14	3.85
COc1ccc(CCN2CCC(Nc3nc4ccccc4n3Cc3ccc(F)cc3)CC2)cc1	5.35	9.54	2.62 µM	3.13	3.44 µM		3.4 µM	4.27	5.14	2.8	1.79	2670	1290	1.71	1.9		1720	2.01	1.68	1.41
CCOC(=O)C(C(=O)OCC)=C1N[C@H](C(=O)OCC)CS1	> 100	> 100	> 100 µM	> 100			> 100 µM	> 100	> 100	> 100										
CC1(C)N=C(N)N=C(N)N1c1cccc(CCCCOc2ccccc2)c1		12.4	> 100 µM	25	> 100 µM	> 81.3 µM	29.8 µM	15.7	> 100	13.7		< 10	47200	0.0398	1.91	1.8	7220	< 0.0118	0.0164	0.0467
CCCC(=O)Nc1ccc2c(c1)CN1C(=O)c3ccccc3C1=N2		> 100	> 100 µM	> 100	> 100 µM		> 100 µM	> 100	> 100	> 100										
O=C1CC[C@H](c2ccc(O)c3c2C(=O)[C@@H]2O[C@@H]2C3=O)c2cccc(O)c21	28.2	30.4	3.16 µM	12.9	30.4 µM	29 µM	6.37 µM		4.92	3.73	13.1	3740	1570	3.51	16.6	15.5	2310		1.6	1.75
COc1ccc(-c2nn(-c3cccc(NC(=O)c4cccc(C(F)(F)F)c4)c3)cc2-c2ccncc2)cc1Cl		> 100	> 100 µM	9.7	> 100 µM	4.68 µM	> 100 µM	> 100	> 100	24		2950	2850	1.35	3.91	1.03	1460	7.06	4.07	2.27
Oc1ccc(-c2cn3cc(Cl)sc3n2)cc1	> 100	53.5	> 100 µM	74.1		> 100 µM		> 100	> 100	41.6	47.6	12900	> 100000	20.9		57.5		67.7	56.9	5.36
CCC1CC(C)=CCN1S(=O)(=O)c1ccc(C)cc1 (stereo not given)	> 100	91.7	66.6 µM	70.8	> 100 µM	> 100 µM	61.7 µM			57.8										
COc1ccc(NC(=O)CC(=O)N2N=C(N(CCC#N)c3cccc(C)c3)CC2c2ccccc2)cc1 (stereo not given)	> 100	> 100	> 100 µM	> 100	> 100 µM		> 100 µM	> 100	> 100	> 100										
O=NN/C(=C1\Nc2ccc([N+](=O)[O-])cc2NC1=O)C(O)c1ccc([N+](=O)[O-])cc1 (stereo not given)		> 100	> 100 µM	> 100	> 100 µM		> 100 µM	> 100	> 100	> 100										
COc1ccc(-c2nc(N3CCOCC3)c3sc(CN(C)c4ncc(C(=O)NO)cn4)cc3n2)cn1		10.9	0.0705 µM			0.0544 µM	0.0352 µM	0.0439	1.41			< 10	< 10			< 0.0155	< 10	< 0.01	< 0.01	
COC1=C2C[C@@H](C)C[C@@H](OC)[C@@H](O)[C@H](C)/C=C(\C)[C@@H](OC(N)=O)[C@H](OC)/C=C\C=C(/C)C(=O)NC(=CC1=O)C2=O					37.5 µM and 18 µM and 8.19 µM	17.8 µM and 2.37 µM	8.13 µM and 3.44 µM and 1.13 µM													
